Laboratory results from US10864245B2, “Activation and expansion of NKG2C+ NK cells” (Deutsches Rheuma-Forschungszentrum Berlin, priority 2018, dated 2020).

Assays:
NKG2C+ NK cells = assay: In vitro culture of CD56dim NK cells from HCMV− donors with peptide-pulsed targets and IL-15 (proliferation, accumulation); type: cell-based, human; conditions: RMA-S/HLA-E/LFA-3, IL-15, IL-12/18 during initial 20 h, 14 days
Experimental: CD56^+ MACS-enriched cells from HCMV^− donors were stained with viability dye, CD3, and CD56, FACS-sorted for viable CD3^− CD56^dim NK cells, and rested overnight in complete medium. Purified CD56^dim NK cells were labeled with 2 μM CellTrace violet (Thermo Fisher) according to the manufacturer's instructions. 5×10^5 labeled NK cells were cultured with 1×10^5 peptide-pulsed […] irradiated (30 Gy) target cells in complete medium containing 10 ng/ml IL-15 (Miltenyi Biotec) in U-bottom 96-well plates (Greiner Bio-One) for the indicated times. Complete medium containing IL-15 was replaced every third to fourth day. On days 4, 7, and 11 of culture, 1×10^5 fresh peptide-pulsed irradiated target cells were added to the cultures.
Where indicated, 10 ng/ml IL-12 (Miltenyi Biotec) and 100 ng/ml IL-18 (MBL) were added at the start of co-cultures. After 20 h of culture, the cells were washed 3 times and resuspended in complete medium containing 10 ng/ml IL-15. Control wells without IL-12/18 were treated equally. To determine NKG2C+ NK cell numbers per μl of culture medium, CountBright Absolute Counting Beads (ThermoFisher) were used according to the manufacturer's instructions.
Proliferation and replication indices^60 of NKG2C+ cells were calculated using the proliferation analysis platform included in FlowJo v9.9 (FlowJo LLC) and normalized to those of NKG2C^− cells in the same condition.

adaptive NKG2C+ NK cells = assay: Stimulation of purified NK cells with peptide-pulsed RMA-S/HLA-E (effector functions); type: cell-based, human; conditions: RMA-S/HLA-E pulsed with 300 μM peptide; 6 h; NK cells from healthy HCMV+ individuals
Experimental: HLA-E surface stabilization was induced as described previously^30. In brief, 300 μM synthetic peptides (Peptides&Elephants) were added to target cells cultured at a density of 2×10^6 cells/ml in serum-free Opti-MEM (ThermoFisher) and incubated for 16 h at 37° C. Peptide-pulsed cells were either stained for FACS analysis of HLA-E surface expression or washed with complete media and used in co-cultures. For pulse-chase experiments, cells were pulsed as above, washed twice, and resuspended in Opti-MEM without peptide. HLA-E surface expression was monitored by FACS analysis at indicated time points.
CD56^+ MACS-enriched cells were stained with viability dye, CD3, and CD56, FACS-sorted for viable CD3^−CD56^+ NK cells, and rested overnight in complete medium. Purified NK cells were stimulated by co-culture with peptide-pulsed (300 μM) irradiated (30 Gy) target cells at a 2:1 NK:target ratio for 6 h in the presence of 300 μM synthetic peptides.
For blocking experiments, rested FACS-sorted viable CD3^− CD56^dim NKG2A^− NKG2C+ NK cells were treated with 20 μg/ml IgG1 isotype control or anti-CD94 antibody (both RnD Systems) for 15 min prior to start of the co-culture.

VMAPRTLVL
NKG2C+ NK-cell absolute counts and frequencies (NKG2C+ NK cells): increase of NKG2C+ NK-cell absolute counts as well as frequencies | TNF, IFN-γ, CD107a, and CCL3 expression by adaptive NKG2C+ NK cells (adaptive NKG2C+ NK cells): differentially triggered
